Data as given in US12264158B2, “Protein kinase MKK4 inhibitors for promoting liver regeneration or reducing or preventing hepatocyte death” (HEPAREGENIX GMBH, priority 2018, dated 2025).

Columns and labels:
Details in all cases: concentration of 100 nM
[1] = target: T1, MKK4 (Homo sapiens, UniProt P45985); test: KINOMEscan competition binding assay, MKK4 potency
T1 construct: S84/D399; host or cells: HEK-293
T1 sequence (P45985 84-399): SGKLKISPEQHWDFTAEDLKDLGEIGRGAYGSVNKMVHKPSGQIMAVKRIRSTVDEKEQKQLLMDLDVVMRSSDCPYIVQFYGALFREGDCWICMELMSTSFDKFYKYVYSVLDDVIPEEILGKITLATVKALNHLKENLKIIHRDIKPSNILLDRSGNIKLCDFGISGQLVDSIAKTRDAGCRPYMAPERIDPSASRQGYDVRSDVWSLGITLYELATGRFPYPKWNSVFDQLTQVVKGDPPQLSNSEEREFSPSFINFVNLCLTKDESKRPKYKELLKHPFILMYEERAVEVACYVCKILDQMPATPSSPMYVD
Protocol: (§1) The assay was performed by combining three components: DNA-tagged kinase; immobilized ligand; and a test compound. The ability of the test compound to compete with the immobilized ligand was measured via quantitative PCR of the DNA tag. The technology is described in detail in Fabian, M. A. et al. A small molecule-kinase interaction map for clinical kinase inhibitors. Nat. […] M. W. et al. A quantitative analysis of kinase inhibitor selectivity, Nat.
(§2) For investigation of the affinity to MKK4, MKK7 and JNK1, the kinases were produced in HEK-293 cells and subsequently tagged with DNA for qPCR detection. […] The liganded beads were blocked with excess biotin and washed with blocking buffer (SEABLOCK™ (Pierce), 1% BSA, 0.05% TWEEN®20, 1 mM DTT) to remove unbound ligand and to reduce nonspecific binding. […] All reactions were performed in polystyrene 96-well plates in a final volume of 0.135 mL. […] The kinase concentration in the eluates was measured by qPCR.
(§3) The test compounds were provided as 10 mM stock solutions. The test solutions at indicated final concentrations were prepared at DiscoverX.

[2] = target: T2, JNK1 (Homo sapiens, UniProt P45983); test: KINOMEscan competition binding assay, selectivity against off-target JNK1
T2 construct: M1/Q384; host or cells: HEK-293
T2 sequence (P45983 1-384 isoform P45983-2): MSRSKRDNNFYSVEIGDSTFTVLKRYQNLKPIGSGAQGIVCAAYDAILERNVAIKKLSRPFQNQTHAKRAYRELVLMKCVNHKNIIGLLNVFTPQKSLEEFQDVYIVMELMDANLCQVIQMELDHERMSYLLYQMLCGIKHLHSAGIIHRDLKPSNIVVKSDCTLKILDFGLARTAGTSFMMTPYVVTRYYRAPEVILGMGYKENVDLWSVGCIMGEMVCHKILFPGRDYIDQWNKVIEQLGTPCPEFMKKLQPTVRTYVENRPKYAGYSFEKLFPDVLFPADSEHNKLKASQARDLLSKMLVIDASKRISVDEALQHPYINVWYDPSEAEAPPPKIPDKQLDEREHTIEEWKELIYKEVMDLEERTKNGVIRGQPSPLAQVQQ
Protocol: as §1, §2, §3

[3] = target: T3, MKK7 (Homo sapiens, UniProt O14733); test: KINOMEscan competition binding assay, selectivity against off-target MKK7
T3 construct: M1/R419; host or cells: HEK-293
T3 sequence (O14733 1-419): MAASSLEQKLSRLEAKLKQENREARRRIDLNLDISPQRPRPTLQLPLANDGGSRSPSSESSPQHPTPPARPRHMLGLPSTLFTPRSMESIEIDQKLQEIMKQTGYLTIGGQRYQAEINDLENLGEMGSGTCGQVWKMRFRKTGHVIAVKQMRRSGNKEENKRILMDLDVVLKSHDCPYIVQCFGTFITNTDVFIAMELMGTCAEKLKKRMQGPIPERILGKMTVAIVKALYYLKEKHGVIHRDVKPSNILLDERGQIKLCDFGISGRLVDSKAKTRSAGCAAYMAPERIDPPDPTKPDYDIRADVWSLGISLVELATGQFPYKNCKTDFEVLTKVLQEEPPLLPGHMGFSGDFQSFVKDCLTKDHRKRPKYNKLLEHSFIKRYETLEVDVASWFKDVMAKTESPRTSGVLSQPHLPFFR
Protocol: as §1, §2, §3

[4] = target: BRaf (Homo sapiens, UniProt P15056); test: KINOMEscan competition binding assay, selectivity against off-target BRaf
Sequence of BRaf (P15056 whole entry): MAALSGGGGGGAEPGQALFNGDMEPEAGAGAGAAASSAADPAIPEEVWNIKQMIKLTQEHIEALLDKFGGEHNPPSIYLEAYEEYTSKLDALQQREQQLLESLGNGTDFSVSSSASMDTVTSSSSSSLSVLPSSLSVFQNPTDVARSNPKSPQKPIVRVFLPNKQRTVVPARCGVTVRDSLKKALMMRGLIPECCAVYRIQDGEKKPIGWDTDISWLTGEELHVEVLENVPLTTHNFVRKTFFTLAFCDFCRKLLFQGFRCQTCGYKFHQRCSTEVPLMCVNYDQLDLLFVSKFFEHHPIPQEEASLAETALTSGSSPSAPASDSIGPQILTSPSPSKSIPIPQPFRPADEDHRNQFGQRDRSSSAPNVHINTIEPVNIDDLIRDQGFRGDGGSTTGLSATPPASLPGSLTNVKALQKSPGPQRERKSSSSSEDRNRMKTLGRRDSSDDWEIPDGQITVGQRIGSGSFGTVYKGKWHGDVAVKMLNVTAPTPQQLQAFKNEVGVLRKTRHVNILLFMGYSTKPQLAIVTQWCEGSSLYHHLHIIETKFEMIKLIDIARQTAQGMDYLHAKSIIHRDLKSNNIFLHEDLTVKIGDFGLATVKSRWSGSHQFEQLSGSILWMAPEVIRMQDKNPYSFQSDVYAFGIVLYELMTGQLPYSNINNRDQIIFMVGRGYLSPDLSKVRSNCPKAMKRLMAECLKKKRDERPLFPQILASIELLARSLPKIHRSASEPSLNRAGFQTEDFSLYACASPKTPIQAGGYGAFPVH
Protocol: as §1, §3

SMILES	MKK4, residual percent of control binding (PoC) [1]	Selectivity vs. JNK1, ratio PoC(JNK1)/PoC(MKK4) [2]	Selectivity vs. MKK7, ratio PoC(MKK7)/PoC(MKK4) [3]	Selectivity vs. BRaf, ratio PoC(BRaf)/PoC(MKK4) [4]
CCCS(=O)(=O)Nc1ccc(F)c(C(=O)c2n[nH]c3ncc(-c4ccc(OC)cc4)cc23)c1F [Example 6, N-(2,4-difluoro-3-(5-(4-methoxyphenyl)-1H-pyrazo-lo[3,4-b]pyridine-3-carbonyl)-phenyl)propane-1-sulfon-amide]	++ (1 ≤ PoC < 10)	++ (30 > PoC(JNK1)/PoC(MKK4) ≥ 10)	++ (30 > PoC(MKK7)/PoC(MKK4) ≥ 10)	O (PoC(BRaf)/PoC(MKK4) < 3)
CCCS(=O)(=O)Nc1ccc(F)c(C(=O)c2n[nH]c3ncc(-c4cccc(Cl)c4)cc23)c1F [Example 7, N-(3-(5-(3-chlorophenyl)-1H-pyrazolo[3,4-b]pyridine-3-carbonyl)-2,4-difluorophenyl)-propane-1-sulfonamide]	O (PoC ≥ 30)	O (PoC(JNK1)/PoC(MKK4) < 3)	O (PoC(MKK7)/PoC(MKK4) < 3)	O (PoC(BRaf)/PoC(MKK4) < 3)
CCCS(=O)(=O)Nc1ccc(F)c(C(=O)c2n[nH]c3ncc(-c4ccc(C(C)(C)C)cc4)cc23)c1F [Example 10, N-(3-(5-(4-tert-butylphenyl)-1H-pyrazolo[3,4-b]pyridine-3-carbonyl)-2,4-difluoro-phenyl)propane-1-sulfon-amide]	O (PoC ≥ 30)	O (PoC(JNK1)/PoC(MKK4) < 3)	O (PoC(MKK7)/PoC(MKK4) < 3)	O (PoC(BRaf)/PoC(MKK4) < 3)
CCCS(=O)(=O)Nc1ccc(F)c(C(=O)c2n[nH]c3ncc(-c4ccc(C(C)C)cc4)cc23)c1F [Example 11, N-(2,4-difluoro-3-(5-(4-isopropylphenyl)-1H-pyrazo-lo[3,4-b]pyridine-3-carbonyl)phenyl)propane-1-sulfon-amide]	+ (10 ≤ PoC < 30)	+ (10 > PoC(JNK1)/PoC(MKK4) ≥ 3)	+ (10 > PoC(MKK7)/PoC(MKK4) ≥ 3)	+ (10 > PoC(BRaf)/PoC(MKK4) ≥ 3)
CCCS(=O)(=O)Nc1ccc(F)c(C(=O)c2n[nH]c3ncc(-c4ccc(C)c(C)c4)cc23)c1F [Example 12, N-(3-(5-(3,4-dimethyl-phenyl)-1H-pyrazolo[3,4-b]pyridine-3-carbonyl)-2,4-difluorophenyl)-propane-1-sulfonamide]	+ (10 ≤ PoC < 30)	+ (10 > PoC(JNK1)/PoC(MKK4) ≥ 3)	+ (10 > PoC(MKK7)/PoC(MKK4) ≥ 3)	O (PoC(BRaf)/PoC(MKK4) < 3)
CCCS(=O)(=O)Nc1ccc(F)c(C(=O)c2n[nH]c3ncc(-c4cccc(F)c4)cc23)c1F [Example 16, N-(2,4-difluoro-3-(5-(3-fluorophenyl)-1H-pyrazo-lo[3,4-b]pyridine-3-carbonyl)-phenyl)propane-1-sulfon-amide]	++ (1 ≤ PoC < 10)	++ (30 > PoC(JNK1)/PoC(MKK4) ≥ 10)	++ (30 > PoC(MKK7)/PoC(MKK4) ≥ 10)	O (PoC(BRaf)/PoC(MKK4) < 3)
CCCS(=O)(=O)Nc1ccc(F)c(C(=O)c2n[nH]c3ncc(-c4ccc(C)cc4)cc23)c1F [Example 20, N-(2,4-difluoro-3-(5-p-tolyl-1H-pyrazolo[3,4-b]pyridine-3-carbonyl)phenyl)propane-1-sulfonamide]	++ (1 ≤ PoC < 10)	++ (30 > PoC(JNK1)/PoC(MKK4) ≥ 10)	++ (30 > PoC(MKK7)/PoC(MKK4) ≥ 10)	O (PoC(BRaf)/PoC(MKK4) < 3)
CCCS(=O)(=O)Nc1ccc(F)c(C(=O)c2n[nH]c3ncc(-c4cc(Cl)cc(Cl)c4)cc23)c1F [Example 22, N-(3-(5-(3,5-dichloro-phenyl)-1H-pyrazolo[3,4-b]pyridine-3-carbonyl)-2,4-difluoro-phenyl)propane-1-sulfon-amide]	O (PoC ≥ 30)	O (PoC(JNK1)/PoC(MKK4) < 3)	O (PoC(MKK7)/PoC(MKK4) < 3)	O (PoC(BRaf)/PoC(MKK4) < 3)
CCCS(=O)(=O)Nc1ccc(F)c(C(=O)c2n[nH]c3ncc(-c4ccccc4N)cc23)c1F [Example 26, N-(3-(5-(2-aminophenyl)-1H-pyrazolo[3,4-b]pyridine-3-carbonyl)-2,4-difluorophenyl)-propane-1-sulfonamide]	+ (10 ≤ PoC < 30)	+ (10 > PoC(JNK1)/PoC(MKK4) ≥ 3)	+ (10 > PoC(MKK7)/PoC(MKK4) ≥ 3)	+ (10 > PoC(BRaf)/PoC(MKK4) ≥ 3)

Continued, values first:

MKK4, residual percent of control binding (PoC) [1]	Selectivity vs. JNK1, ratio PoC(JNK1)/PoC(MKK4) [2]	Selectivity vs. MKK7, ratio PoC(MKK7)/PoC(MKK4) [3]	Selectivity vs. BRaf, ratio PoC(BRaf)/PoC(MKK4) [4]	SMILES
+ (10 ≤ PoC < 30)	+ (10 > PoC(JNK1)/PoC(MKK4) ≥ 3)	+ (10 > PoC(MKK7)/PoC(MKK4) ≥ 3)	O (PoC(BRaf)/PoC(MKK4) < 3)	CCCS(=O)(=O)Nc1ccc(F)c(C(=O)c2n[nH]c3ncc(-c4cccc(N(C)C)c4)cc23)c1F [Example 28, N-(3-(5-(3-(dimethyl-amino)phenyl)-1H-pyrazo-lo[3,4-b]pyridine-3-carbonyl)-2,4-difluoro-phenyl)propane-1-sulfonamide]
+ (10 ≤ PoC < 30)	+ (10 > PoC(JNK1)/PoC(MKK4) ≥ 3)	+ (10 > PoC(MKK7)/PoC(MKK4) ≥ 3)	O (PoC(BRaf)/PoC(MKK4) < 3)	CCCS(=O)(=O)Nc1ccc(F)c(C(=O)c2n[nH]c3ncc(-c4cccc(C)c4)cc23)c1F [Example 29, N-(2,4-difluoro-3-(5-m-tolyl-1H-pyrazolo[3,4-b]pyridine-3-carbonyl)phenyl)propane-1-sulfonamide]
O (PoC ≥ 30)	O (PoC(JNK1)/PoC(MKK4) < 3)	O (PoC(MKK7)/PoC(MKK4) < 3)	O (PoC(BRaf)/PoC(MKK4) < 3)	CCCS(=O)(=O)Nc1ccc(F)c(C(=O)c2n[nH]c3ncc(-c4cccc(C(F)(F)F)c4)cc23)c1F [Example 30, N-(2,4-difluoro-3-(5-(3-(trifluoromethyl)phenyl)-1H-pyrazolo[3,4-b]pyridine-3-carbonyl)phenyl)propane-1-sulfonamide]
O (PoC ≥ 30)	O (PoC(JNK1)/PoC(MKK4) < 3)	O (PoC(MKK7)/PoC(MKK4) < 3)	O (PoC(BRaf)/PoC(MKK4) < 3)	CCCS(=O)(=O)Nc1ccc(F)c(C(=O)c2n[nH]c3ncc(-c4ccc(Cl)c(Cl)c4)cc23)c1F [Example 33, N-(3-(5-(3,4-dichloro-phenyl)-1H-pyrazolo[3,4-b]pyridine-3-carbonyl)-2,4-difluoro-phenyl)-propane-1-sulfon-amide]
+ (10 ≤ PoC < 30)	O (PoC(JNK1)/PoC(MKK4) < 3)	+ (10 > PoC(MKK7)/PoC(MKK4) ≥ 3)	O (PoC(BRaf)/PoC(MKK4) < 3)	CCCS(=O)(=O)Nc1ccc(F)c(C(=O)c2n[nH]c3ncc(-c4ccc(C(F)(F)F)cc4)cc23)c1F [Example 34, N-(2,4-difluoro-3-(5-(4-(trifluoromethyl)phenyl)-1H-pyrazolo[3,4-b]pyridine-3-carbonyl)-phenyl)propane-1-sulfonamide]
+ (10 ≤ PoC < 30)	+ (10 > PoC(JNK1)/PoC(MKK4) ≥ 3)	+ (10 > PoC(MKK7)/PoC(MKK4) ≥ 3)	+ (10 > PoC(BRaf)/PoC(MKK4) ≥ 3)	CCCS(=O)(=O)Nc1ccc(F)c(C(=O)c2n[nH]c3ncc(-c4ccc(Cl)cc4Cl)cc23)c1F [Example 35, N-(3-(5-(2,4-dichlorophenyl)-1H-pyrazolo[3,4-b]pyridine-3-carbonyl)-2,4-difluoro-phenyl)propane-1-sulfonamide]
